Assay results as given in patent publication US6458817B1, “Substituted arylsulfides, arylsulfoxides and arylsulfones as beta-3 adrenergic receptor agonists” (Wyeth, priority 2000, dated 2002).

Assays:
[1] = target: T1, human β3 adrenergic receptor (Homo sapiens, UniProt P13945); experiment: cAMP accumulation (SPA) in CHO cells transfected with human β3 adrenergic receptor; format: cell-based; details: for EC50: CHO cells expressing human β3-AR, cAMP by SPA, 30 min incubation, 10^-9M to 10^-5M; for IA(β3): maximal response relative to isoproterenol at 10^-5M (IA=% activity compound/% activity isoproterenol)
T1 construct: Full length β3 AR clones (402 amino acids) containing the last 6 amino acids of hβ3—AR are prepared; expressed in transfected cells; host or cells: CHO cells
T1 sequence (P13945 whole entry): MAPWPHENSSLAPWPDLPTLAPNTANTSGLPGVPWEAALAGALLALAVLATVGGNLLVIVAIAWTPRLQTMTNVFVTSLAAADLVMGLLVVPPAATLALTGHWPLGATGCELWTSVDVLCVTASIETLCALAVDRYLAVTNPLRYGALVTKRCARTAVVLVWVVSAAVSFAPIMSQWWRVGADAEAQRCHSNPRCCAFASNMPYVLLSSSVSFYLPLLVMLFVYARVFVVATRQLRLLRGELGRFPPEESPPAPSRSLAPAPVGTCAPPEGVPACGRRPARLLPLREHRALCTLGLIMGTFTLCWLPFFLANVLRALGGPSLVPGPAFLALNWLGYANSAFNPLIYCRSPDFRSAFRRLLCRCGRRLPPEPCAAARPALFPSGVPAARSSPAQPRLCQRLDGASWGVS
Description: The ability of compounds of this invention to treat or inhibit disorders related to insulin resistance or hyperglycemia was established with representative compounds of this invention in the following standard pharmacological test procedures, which measured the binding selectivity to the β1, β2, and β3 adrenergic receptors. Binding to the receptors was measured in Chinese Hamster ovary (CHO) cells that were transfected with adrenergic receptors. The following briefly summarizes the procedures used and results obtained.
Cloning of Human β3-AR Genomic DNA: cDNA was constructed by ligating four polymerase chain reaction (PCR) products using the following primers: an ATG-Narl fragment, sense primer 5′-[…]3′ and anti-sense primer 5′[…]3′; a Narl-Accl fragment, 5′[…]3′ as sense and 5′[…]3′ as anti-sense primer; an Accli-Styl fragment, sense primer 5′[…]3′ and anti-sense primer 5′[…]3′ and a Styl-TAG fragment, with sense primer 5′[…]3′ and anti-sense primer 5′[…]3′. The corresponding primer sequences are described in Mantzoros, C. S., et. al., Diabetes 45: 909-914 (1996). The four fragments are ligated into a pUC 18 plasmid (Gibco-BRL) and sequenced. Full length β3 AR clones (402 amino acids) containing the last 6 amino acids of hβ3—AR are prepared with the β3-βARpcDNA3 from ATTC.
Binding Procedure: Clones expressing receptor levels of 70 to 110 fmoles/mg protein were used in the test procedures. CHO cells were grown in 24-well tissue culture plates in Dulbecco's Modified Eagle Media with 10% fetal bovine serum, MEM non-essential amino acids, Penicillin-Streptompycin and Geneticin. On the day of test procedure, growth medium was replaced with preincubation media (Dulbecco's Modified Eagle Media and incubated for 30 minutes at 37° C. Preincubation medium was replaced with 0.2 ml treatment medium containing DMEM media containing 250 μM IBMX (isobutyl-1-methylxantine) plus 1 mM ascorbic acid with test compound dissolved in DMSO. Test compounds were tested over a concentration range of 10^−9M to 10^−5M for β3 cells and 10^−8 to 10^−4M for β1 and β2 transfected cells. Isoproterenol (10^−5M) was used as an internal standard for comparison of activity. Cells were incubated at 37° C. on a rocker for 30 min with the β3 cells and 15 min for β1 and β2 cells. Incubation was stopped with the addition of 0.2N HCl and neutralized with 2.5N NaOH. The plates, containing the cells and neutralized media, were stored at −20 degrees celsius until ready to test for cAMP using the SPA test kit (Amersham).
Data Analysis and Results: Data collected from the SPA test procedure were analyzed as per cent of the maximal isoproterenol response at 10^−5M. Activity curves were plotted using the SAS statistical and graphics software. EC50 values were generated for each compound and the maximal response (IA) developed for each compound is compared to the maximal response of isoproternol at 10^−5M from the following formula:
IA=% activity compound/% activity isoproterenol

SMILES	melting point	EC50 [1]	IA(β3) [1]
Cc1ccc(-c2noc(CSc3ccc(CCNC[C@H](O)COc4cccc5[nH]nnc45)cc3)n2)cc1 [Example 33, (2S)-1-(1H-1,2,3-benzotriazol-4-yloxy)-3-{[4-({[3-(4-methylphenyl)-1,2,4-oxadiazol-5-yl]methyl}sulfanyl)phenethyl]amino}-2-propanol]	110 °C	789 nM	0.44
COc1ccc(-c2nc(CS(=O)(=O)c3ccc(CCNC[C@H](O)COc4ccc(O)c(C)c4)cc3)no2)cc1 [Example 19, 4-[((2S)-2-hydroxy-3-{[4-({[5-(4-methoxyphenyl)-1,2,4-oxadiazol-3-yl]methyl}sulfonyl)phenethyl]amino}propyl)oxy]-2-methylphenol]	–	68 nM	0.95
COc1ccc(-c2nc(CS(=O)(=O)c3ccc(CCNC[C@H](O)c4ccc(O)c(NS(C)(=O)=O)c4)cc3)no2)cc1 [Example 27, N-[2-hydroxy-5-((1R)-1-hydroxy-2-{[4-({[5-(4-methoxyphenyl)-1,2,4-oxadiazol-3-yl]methyl}sulfonyl)phenethyl]amino}ethyl)phenyl]methanesulfonamide]	–	25 nM	1
[O-][S+](Cc1noc(Cc2ccccc2)n1)c1ccc(CCNC[C@H](O)COc2ccc(O)cc2)cc1 (stereo partly drawn) [Example 24, 4-({(2S)-3-[(4-{[(5-benzyl-1,2,4-oxadiazol-3-yl)methyl]sulfinyl}phenethyl)amino]-2-hydroxypropyl}oxy)phenol]	51 to 57 °C	431 nM	0.62
O=S(=O)(Cc1noc(-c2ccccc2)n1)c1ccc(CCNCC(O)c2ccc(OC(F)(F)F)cc2)cc1 (stereo not drawn) [Example 8, 2-[(4{[(5-phenyl-1,2,4-oxadiazol-3-yl)methyl]sulfonyl}phenethyl)amino]-1-[4-(trifluoromethoxy)phenyl]-1-ethanol]	125 to 127 °C	–	–

Other lines, results leading:

melting point	EC50 [1]	IA(β3) [1]	SMILES
–	70 nM	–	Cc1noc(C)c1-c1nc(CS(=O)(=O)c2ccc(CCNC[C@H](O)COc3ccc(O)cc3)cc2)no1 [Example 12, 4-[((2S)-3-{[4-({[5-(3,5-dimethyl-4-isoxazolyl)-1,2,4-oxadiazol-3-yl]methyl}sulfonyl)phenethyl]amino}-2-hydroxypropyl)oxy]phenol]
–	33 nM	1.1	COc1ccc(-c2nc(CS(=O)(=O)c3ccc(CCNC[C@H](O)COc4ccc(O)cc4)cc3)no2)cc1 [Example 29, 4[((2S)-2-hydroxy-3-{[4-({[5-(4-methoxyphenyl)-1,2,4-oxadiazol-3-yl]methyl}sulfonyl)phenethyl]amino}propyl)oxy]phenol]
–	28 nM	0.92	CC(C)(C)c1nc(CS(=O)(=O)c2ccc(CCNC[C@H](O)COc3ccc(O)cc3)cc2)no1 [Example 15, 4-[((2S)-3-{[4-({[5-(tert-butyl)-1,2,4-oxadiazol-3-yl]methyl}sulfonyl)phenethyl]amino}-2-hydroxypropyl)oxy]phenol]
–	330 nM	1.2	CC(C)(C)c1nc(CSc2ccc(CCNC[C@H](O)COc3ccc(O)cc3)cc2)no1 [Example 32, (2S)-4-(3-{2-[4-(5-tert-Butyl-[1,2,4]oxadiazol-3-ylmethylsulfanyl) -phenyl]-ethylamino}-2-hydroxy-propoxy)-phenol]
